Key:
[1] = target: T1, Human Melanocortin (MC3) (Homo sapiens, UniProt P41968); experiment: Radioligand binding, human melanocortin MC3 membranes, FlashPlate, [125I]-NDP-αMSH; settings: compound at 10 μM, [125I]-NDP-αMSH
T1 construct: purchased Perkin Elmer Biosignal
Method in brief: (§1)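 Cloned human receptor membranes were coated onto FlashPlate wells and incubated with radioligand and compound (added from a 0.5 mM DMSO daughter plate) for 1 hour at room temperature in the dark. Scintillation counting gave percent inhibition, with DMSO defining total and reference ligand defining non-specific binding.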

[2] = target: T2, Human melanocortin (MC5) (Homo sapiens, UniProt P33032); experiment: Radioligand binding, human melanocortin MC5 membranes, FlashPlate, [125I]-NDP-αMSH; settings: compound at 10 μM, [125I]-NDP-αMSH
T2 construct: purchased Perkin Elmer Biosignal
Method in brief: as §1

[3] = target: T3, Human melanin-concentrating hormone (MCH1) (Homo sapiens, UniProt Q99705); experiment: Radioligand binding, human melanin-concentrating hormone MCH1 membranes, FlashPlate, [125I]-S36057; settings: compound at 10 μM, [125I]-S36057
T3 construct: purchased Perkin Elmer Biosignal
Method in brief: as §1

[4] = target: T4, Human opioid (ORL1) (Homo sapiens, UniProt P41146); experiment: Radioligand binding, human opioid ORL1 membranes, FlashPlate, [125I]-Nociceptin; settings: compound at 10 μM, [125I]-Nociceptin
T4 construct: purchased Perkin Elmer Biosignal
Method in brief: as §1

[5] = target: T5, Human neurokinin (NK1) (Homo sapiens, UniProt P25103); experiment: Radioligand binding, human neurokinin NK1 membranes, filtration, [125I]-Substance P; settings: compound at 10 μM; [125I]-Substance P
T5 construct: purchased Perkin Elmer Biosignal
Method in brief: (§2)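 Filtration binding on cloned human receptor membranes (1 Unit/well), [125I]-Substance P for NK1 and [3H]-Diprenorphine for KOP, 1 h at room temperature. Filters PEI-presoaked, washed with cold 50 mM Tris-HCl pH 7.4, counted by scintillation; percent inhibition calculated, reference ligand defining non-specific binding.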

[6] = target: T6, Human δ-opioid (DOP) (Homo sapiens, UniProt P41143); experiment: Radioligand binding, human δ-opioid (DOP) membranes, FlashPlate, [3H]-Bremazocine; settings: compound at 10 μM; [3H]-Bremazocine
T6 construct: purchased Perkin Elmer Biosignal
Method in brief: as §1

[7] = target: T7, Human μ-opioid (MOP) (Homo sapiens, UniProt P35372); experiment: Radioligand binding, human μ-opioid (MOP) membranes, FlashPlate, [3H]-Naloxone; settings: compound at 10 μM, [3H]-Naloxone
T7 construct: purchased Perkin Elmer Biosignal
Method in brief: as §1

[8] = target: T8, Human neuropeptide Y (NPY-Y1) (Homo sapiens, UniProt P25929); experiment: Radioligand binding, human neuropeptide Y NPY-Y1 membranes, FlashPlate, [125I]-PYY; settings: compound at 10 μM; [125I]-PYY
T8 construct: purchased Perkin Elmer Biosignal
T8 sequence (P25929 1-384): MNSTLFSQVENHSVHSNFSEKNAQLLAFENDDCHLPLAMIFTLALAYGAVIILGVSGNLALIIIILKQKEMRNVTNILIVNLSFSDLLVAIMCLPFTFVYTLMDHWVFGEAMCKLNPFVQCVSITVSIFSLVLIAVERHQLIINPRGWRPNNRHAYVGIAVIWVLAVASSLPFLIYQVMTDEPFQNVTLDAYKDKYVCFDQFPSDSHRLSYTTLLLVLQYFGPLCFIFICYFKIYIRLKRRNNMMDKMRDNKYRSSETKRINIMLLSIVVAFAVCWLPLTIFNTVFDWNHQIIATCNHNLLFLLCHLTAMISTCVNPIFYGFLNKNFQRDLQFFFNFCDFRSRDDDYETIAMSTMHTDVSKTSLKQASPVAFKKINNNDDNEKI
Method in brief: as §1

[9] = target: T9, Human Melanocortin (MC4) (Homo sapiens, UniProt P32245); experiment: Radioligand binding, human melanocortin MC4 membranes, FlashPlate, [125I]-NDP-αMSH; settings: compound at 10 μM; [125I]-NDP-αMSH
T9 construct: purchased Perkin Elmer Biosignal
Method in brief: as §1

[10] = target: T10, Human κ-Opioid (KOP) (Homo sapiens, UniProt P41145); experiment: Radioligand binding, human κ-opioid (KOP) membranes, filtration, [3H]-Diprenorphine; settings: compound at 10 μM; [3H]-Diprenorphine
T10 construct: purchased Perkin Elmer Biosignal
Method in brief: as §2

[11] = target: T11, Mouse urotensin (mUR2) (Mus musculus, UniProt Q8VIH9); experiment: Radioligand binding, mouse urotensin mUR2 membranes, FlashPlate, [125I]-Urotensin II; settings: compound at 10 μM; [125I]-Urotensin II
T11 construct: purchased Perkin Elmer Biosignal
T11 sequence (Q8VIH9 1-385): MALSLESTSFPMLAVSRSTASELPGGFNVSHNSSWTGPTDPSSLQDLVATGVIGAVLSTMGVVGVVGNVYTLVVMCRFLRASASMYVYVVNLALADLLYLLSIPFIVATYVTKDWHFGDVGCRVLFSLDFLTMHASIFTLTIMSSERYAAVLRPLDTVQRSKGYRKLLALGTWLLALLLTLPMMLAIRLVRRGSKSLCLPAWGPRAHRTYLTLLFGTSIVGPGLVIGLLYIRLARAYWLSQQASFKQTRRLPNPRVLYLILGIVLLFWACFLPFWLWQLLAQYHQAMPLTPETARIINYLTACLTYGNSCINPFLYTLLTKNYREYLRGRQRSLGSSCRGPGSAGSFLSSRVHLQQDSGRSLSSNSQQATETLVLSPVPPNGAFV
Method in brief: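 Cloned mouse urotensin (mUR2) receptor membranes from Perkin Elmer Biosignal were immobilized in FlashPlate microplates using a proprietary coating. Each well got 19.5 μl buffer, then 0.5 μl of DMSO, reference ligand, or compound. Adding 5 μl of [125I]-Urotensin II, diluted to 5× final concentration in binding buffer, started binding. Plates were sealed with TopSeal-A and incubated 1 hour at room temperature in the dark. Wells were counted for 30 seconds each on a TopCount after a 60-second delay, and percentage inhibition was calculated.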

T10 sequence (P41145 whole entry): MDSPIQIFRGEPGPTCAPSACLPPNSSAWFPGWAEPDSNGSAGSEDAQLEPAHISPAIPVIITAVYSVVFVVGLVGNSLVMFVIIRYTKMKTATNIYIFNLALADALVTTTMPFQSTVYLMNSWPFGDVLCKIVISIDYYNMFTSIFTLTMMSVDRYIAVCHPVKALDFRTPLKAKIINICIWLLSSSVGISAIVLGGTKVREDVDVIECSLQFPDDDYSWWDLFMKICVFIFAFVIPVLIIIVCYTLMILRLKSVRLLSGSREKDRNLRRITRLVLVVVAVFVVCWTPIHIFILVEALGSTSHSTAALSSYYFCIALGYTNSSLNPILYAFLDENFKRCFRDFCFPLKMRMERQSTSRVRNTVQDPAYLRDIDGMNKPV
T3 sequence (Q99705 whole entry): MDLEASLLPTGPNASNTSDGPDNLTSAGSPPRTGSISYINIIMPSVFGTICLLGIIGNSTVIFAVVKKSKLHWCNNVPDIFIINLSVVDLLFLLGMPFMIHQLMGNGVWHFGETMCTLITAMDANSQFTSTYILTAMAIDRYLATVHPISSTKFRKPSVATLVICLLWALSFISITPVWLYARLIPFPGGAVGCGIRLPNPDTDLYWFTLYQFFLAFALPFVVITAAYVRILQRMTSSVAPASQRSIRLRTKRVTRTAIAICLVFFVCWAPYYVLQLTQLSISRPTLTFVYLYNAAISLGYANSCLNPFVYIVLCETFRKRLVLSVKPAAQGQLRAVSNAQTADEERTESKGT
T9 sequence (P32245 whole entry): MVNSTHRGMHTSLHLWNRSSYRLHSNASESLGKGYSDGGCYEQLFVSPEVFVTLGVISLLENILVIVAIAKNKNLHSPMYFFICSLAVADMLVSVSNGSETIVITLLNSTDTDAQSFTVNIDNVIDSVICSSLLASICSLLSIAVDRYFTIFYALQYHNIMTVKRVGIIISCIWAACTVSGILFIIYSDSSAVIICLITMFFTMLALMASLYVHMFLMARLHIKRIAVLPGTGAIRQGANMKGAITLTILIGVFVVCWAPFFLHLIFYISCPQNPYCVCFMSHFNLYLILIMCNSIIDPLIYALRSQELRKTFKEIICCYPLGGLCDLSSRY
T7 sequence (P35372 whole entry): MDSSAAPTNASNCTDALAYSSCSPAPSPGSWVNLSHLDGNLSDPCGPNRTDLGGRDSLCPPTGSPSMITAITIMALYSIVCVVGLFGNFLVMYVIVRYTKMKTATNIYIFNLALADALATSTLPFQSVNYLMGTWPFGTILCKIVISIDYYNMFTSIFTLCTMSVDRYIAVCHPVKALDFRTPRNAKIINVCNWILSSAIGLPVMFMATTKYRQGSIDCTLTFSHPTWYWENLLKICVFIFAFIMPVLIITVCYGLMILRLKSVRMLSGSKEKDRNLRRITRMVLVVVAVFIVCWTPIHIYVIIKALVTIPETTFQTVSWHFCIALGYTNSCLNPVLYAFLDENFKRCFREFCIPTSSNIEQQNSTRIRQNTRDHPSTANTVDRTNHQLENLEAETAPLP
T5 sequence (P25103 whole entry): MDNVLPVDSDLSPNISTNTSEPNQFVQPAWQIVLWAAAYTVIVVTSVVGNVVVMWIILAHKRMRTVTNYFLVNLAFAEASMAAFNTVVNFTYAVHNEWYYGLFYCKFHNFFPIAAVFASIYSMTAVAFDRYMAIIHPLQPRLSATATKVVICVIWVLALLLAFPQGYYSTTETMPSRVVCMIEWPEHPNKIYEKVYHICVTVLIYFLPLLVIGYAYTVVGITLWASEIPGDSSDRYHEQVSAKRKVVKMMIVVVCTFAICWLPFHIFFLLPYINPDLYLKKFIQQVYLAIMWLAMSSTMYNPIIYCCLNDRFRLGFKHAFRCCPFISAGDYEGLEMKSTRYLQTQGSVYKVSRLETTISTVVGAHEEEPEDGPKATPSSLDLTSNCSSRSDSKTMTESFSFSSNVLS
T4 sequence (P41146 whole entry): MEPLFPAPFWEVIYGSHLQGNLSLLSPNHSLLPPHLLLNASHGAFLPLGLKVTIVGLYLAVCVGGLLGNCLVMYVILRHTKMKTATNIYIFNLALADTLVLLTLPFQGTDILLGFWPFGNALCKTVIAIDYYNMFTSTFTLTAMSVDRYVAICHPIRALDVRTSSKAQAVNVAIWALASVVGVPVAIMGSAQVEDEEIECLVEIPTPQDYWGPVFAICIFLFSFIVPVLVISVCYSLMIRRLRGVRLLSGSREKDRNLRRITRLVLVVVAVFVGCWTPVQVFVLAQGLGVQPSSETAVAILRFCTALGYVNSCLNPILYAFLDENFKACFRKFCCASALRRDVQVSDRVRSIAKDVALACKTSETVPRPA
T2 sequence (P33032 whole entry): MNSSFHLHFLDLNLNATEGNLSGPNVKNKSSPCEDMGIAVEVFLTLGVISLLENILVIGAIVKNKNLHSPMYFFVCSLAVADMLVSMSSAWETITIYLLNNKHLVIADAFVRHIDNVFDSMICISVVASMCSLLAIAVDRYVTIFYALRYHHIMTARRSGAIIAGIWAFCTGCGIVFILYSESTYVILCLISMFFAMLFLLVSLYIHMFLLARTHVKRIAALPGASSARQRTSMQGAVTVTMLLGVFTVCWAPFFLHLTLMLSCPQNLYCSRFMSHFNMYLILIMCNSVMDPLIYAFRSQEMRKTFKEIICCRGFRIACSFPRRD
T6 sequence (P41143 whole entry): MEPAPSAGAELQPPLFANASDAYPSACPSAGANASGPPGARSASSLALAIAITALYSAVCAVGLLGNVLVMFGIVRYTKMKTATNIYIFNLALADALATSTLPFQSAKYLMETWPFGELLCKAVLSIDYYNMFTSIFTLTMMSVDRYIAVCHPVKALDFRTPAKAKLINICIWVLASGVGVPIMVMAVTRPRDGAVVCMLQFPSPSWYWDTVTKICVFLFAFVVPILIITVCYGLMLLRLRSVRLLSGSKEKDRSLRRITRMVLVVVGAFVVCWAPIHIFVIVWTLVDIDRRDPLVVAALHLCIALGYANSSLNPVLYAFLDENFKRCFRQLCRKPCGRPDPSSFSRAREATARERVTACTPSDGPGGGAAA
T1 sequence (P41968 whole entry): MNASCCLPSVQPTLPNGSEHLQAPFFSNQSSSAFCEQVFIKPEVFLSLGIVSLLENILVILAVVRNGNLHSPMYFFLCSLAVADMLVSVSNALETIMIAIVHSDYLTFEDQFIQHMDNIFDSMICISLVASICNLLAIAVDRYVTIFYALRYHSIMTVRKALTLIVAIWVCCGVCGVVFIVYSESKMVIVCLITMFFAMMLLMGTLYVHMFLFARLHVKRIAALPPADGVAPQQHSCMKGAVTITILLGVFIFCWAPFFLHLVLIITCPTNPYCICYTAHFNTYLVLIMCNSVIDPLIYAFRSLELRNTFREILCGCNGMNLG

SMILES | A3: inhibition of radioligand binding, human melanocortin (MC3) [1] | A5: inhibition of radioligand binding, human melanocortin (MC5) [2] | A6: inhibition of radioligand binding, human melanin-concentrating hormone (MCH1) ([3]; 10 µM) | A10: inhibition of radioligand binding, human opioid (ORL1) [4] | A8: inhibition of radioligand binding, human neurokinin (NK1) [5] | A1: inhibition of radioligand binding, human δ-opioid (DOP) [6] | A7: inhibition of radioligand binding, human μ-opioid (MOP) ([7]; 10 µM) | A9: inhibition of radioligand binding, human neuropeptide Y (NPY-Y1) [8] | A4: inhibition of radioligand binding, human melanocortin (MC4) [9] | A2: inhibition of radioligand binding, human κ-opioid (KOP) [10] | A11: inhibition of radioligand binding, mouse urotensin (mUR2) [11] | A3: inhibition of radioligand binding, human melanocortin (MC3) ([1]; 10 µM) | A5: inhibition of radioligand binding, human melanocortin (MC5) ([2]; 10 µM) | A6: inhibition of radioligand binding, human melanin-concentrating hormone (MCH1) [3] | A10: inhibition of radioligand binding, human opioid (ORL1) ([4]; 10 µM) | A7: inhibition of radioligand binding, human μ-opioid (MOP) [7]
NCCCC(=O)NC1C(OCc2ccc(Cl)cc2)OC(COCc2ccc(Cl)cc2)C(O)C1OCc1ccc2ccccc2c1 (single isomer, unassigned) [compound 500] | + (“+” indicates greater than 50% inhibition at 10 μM) | + (“+” indicates greater than 50% inhibition at 10 μM) | + (“+” indicates greater than 50% inhibition at 10 μM) | + (“+” indicates greater than 50% inhibition at 10 μM) | + (“+” indicates greater than 50% inhibition at 10 μM) | − (“−” indicates less than 50% inhibition at 10 μM) | + (“+” indicates greater than 50% inhibition at 10 μM) | − (“−” indicates less than 50% inhibition at 10 μM) | + (“+” indicates greater than 50% inhibition at 10 μM) | − (“−” indicates less than 50% inhibition at 10 μM) | − (“−” indicates less than 50% inhibition at 10 μM) |  |  |  |  | 
NCCCC(=O)NC1C(OCc2ccc(Cl)cc2)OC(COCc2ccc3ccccc3c2)C(O)C1OCc1ccccc1 (single isomer, unassigned) [compound 501] |  | + (“+” indicates greater than 50% inhibition at 10 μM) | − (“−” indicates less than 50% inhibition at 10 μM) | + (“+” indicates greater than 50% inhibition at 10 μM) | + (“+” indicates greater than 50% inhibition at 10 μM) | − (“−” indicates less than 50% inhibition at 10 μM) | − (“−” indicates less than 50% inhibition at 10 μM) | − (“−” indicates less than 50% inhibition at 10 μM) | + (“+” indicates greater than 50% inhibition at 10 μM) | − (“−” indicates less than 50% inhibition at 10 μM) | − (“−” indicates less than 50% inhibition at 10 μM) | + (“+” indicates greater than 50% inhibition at 10 μM) |  |  |  | 
NCCCC(=O)NC1C(OCc2ccc(Cl)cc2)OC(COCc2ccc3ccccc3c2)C(O)C1OCc1ccccc1 (single isomer, unassigned) [compound 502] |  | + (“+” indicates greater than 50% inhibition at 10 μM) | + (“+” indicates greater than 50% inhibition at 10 μM) | + (“+” indicates greater than 50% inhibition at 10 μM) | + (“+” indicates greater than 50% inhibition at 10 μM) | − (“−” indicates less than 50% inhibition at 10 μM) | + (“+” indicates greater than 50% inhibition at 10 μM) | − (“−” indicates less than 50% inhibition at 10 μM) | + (“+” indicates greater than 50% inhibition at 10 μM) | − (“−” indicates less than 50% inhibition at 10 μM) | − (“−” indicates less than 50% inhibition at 10 μM) | − (“−” indicates less than 50% inhibition at 10 μM) |  |  |  | 
NCCCC(=O)NC1C(OCc2ccc(Cl)cc2)OC(COCc2ccccc2)C(O)C1OCc1ccccc1 (single isomer, unassigned) [compound 503] | − (“−” indicates less than 50% inhibition at 10 μM) |  |  |  | + (“+” indicates greater than 50% inhibition at 10 μM) | − (“−” indicates less than 50% inhibition at 10 μM) |  | − (“−” indicates less than 50% inhibition at 10 μM) | − (“−” indicates less than 50% inhibition at 10 μM) | − (“−” indicates less than 50% inhibition at 10 μM) | − (“−” indicates less than 50% inhibition at 10 μM) |  | + (“+” indicates greater than 50% inhibition at 10 μM) | − (“−” indicates less than 50% inhibition at 10 μM) | − (“−” indicates less than 50% inhibition at 10 μM) | − (“−” indicates less than 50% inhibition at 10 μM)
NCCCC(=O)NC1C(OCc2ccc(Cl)cc2)OC(COCc2ccccc2)C(O)C1OCc1ccccc1 (single isomer, unassigned) [compound 504] | − (“−” indicates less than 50% inhibition at 10 μM) |  |  |  | + (“+” indicates greater than 50% inhibition at 10 μM) | − (“−” indicates less than 50% inhibition at 10 μM) |  | − (“−” indicates less than 50% inhibition at 10 μM) | − (“−” indicates less than 50% inhibition at 10 μM) | − (“−” indicates less than 50% inhibition at 10 μM) | − (“−” indicates less than 50% inhibition at 10 μM) |  | − (“−” indicates less than 50% inhibition at 10 μM) | − (“−” indicates less than 50% inhibition at 10 μM) | + (“+” indicates greater than 50% inhibition at 10 μM) | − (“−” indicates less than 50% inhibition at 10 μM)

Reference: patent US20080009418A1, “Selective Inhibitors” (Alchemia LTD., priority 2004, published 2008)
